Read-outs that look alike come from different tables or passages of the source.

This note sets out measurements from patent US20150250786A1, “PYRIMIDINE HYDROXY AMIDE COMPOUNDS AS PROTEIN DEACETYLASE INHIBITORS AND METHODS OF USE THEREOF” (THE TRUSTEES OF THE UNIVERSITY OF PENNSYLVANIA, priority 2012, published 2015).

Data set [1] relates to mice. The experiment in a line: Chronic social defeat (CSD) and social interaction test. In kind it is in vivo, mouse. The following applies: after CSD; fluoxetine 20 mg/kg, compound 73 5 mg/kg, compound 101 50 mg/kg. As for the experimental part: Additionally, when combined with a dose of Citalopram with lower activity, these compounds seemed to have an additive effect (See FIG. 10). The dose of Citalopram chosen for this experiment was based on literature stating 2 mg/kg should be subactive, but this dose was found still showing an effect. Mice then underwent chronic social defeat stress, in which the mice are exposed to an aggressive resident mouse for 5 minutes daily for 10 days and are then tested on the 11th day in the social interaction test. Mice treated with vehicle for 20 total days, beginning 10 days before the defeat, show reduced time spent in the interaction zone when a target mouse is present when compared with control mice. […] The percent of mice found to be resilient, defined as spending more time in the interaction zone than the lowest control (i.e. ˜52 s), is higher in HDAC6 inhibitor groups. All behavior testing done using NIH Swiss mice, age 6-10 weeks. Tukey post-hoc analysis: * P=0.01 to 0.05, ** P=0.001-0.01, ***P<0.001 compared with vehicle treated mice.
The effects were observed 30 minutes after acute 50 mg/kg i.p. injection, but not for the lower dose (5 mg/kg). Combination of subactive doses of the HDAC6 selective inhibitors (5 mg/kg) and citalopram (0.5 mg/kg) produced robust potentiation of anti-immobility activity (n=8-29 per condition). […] No difference was observed between HDAC6 WT and KO when treated with the vehicle (n=6-15 per condition). FIG. 16c is a timeline showing treatment period, social defeat and social interaction (SI) testing.
A pro-resilient phenotype in the mouse CSD paradigm after serotonin-selective KO of HDAC6 was previously reported (Espallergues et al, 2012). Whether a chronic pharmacological inhibition of HDAC6 can replicate that phenotype is studied. […] On day 21, 24 h after the last injection, the mice were tested in the social interaction test. […] Significant effects were also observed when data was evaluated in terms of proportion of mice reaching criterion for resiliency.

A short description of data set [2]: Body weight gain during chronic treatment. The following applies: 4 weeks of treatment. It is filed as in vivo, mouse.
Data set [3] addresses HDAC2 (Homo sapiens, UniProt Q92769). The experiment in a line: HDAC enzyme assay, HDAC2.
In data set [4] the test system is α-tubulin K40 acetylation in cortex, hippocampus, DRN, cerebellum. The experiment in a line: α-tubulin acetylation in brain regions after subchronic administration, WT and HDAC6 KO mice. In kind it is in vivo, mouse. As for the experimental part: Results are shown as percent change normalized to the vehicle treatment condition. The horizontal hard line depicts average and the dotted lines depict SEM of the vehicle treated wells. Representative Western blot images are presented. […] Representative Western blot images are presented. […] […] The changes in tubulin acetylation were measured in tissue lysates from cortex (ctx), hippocampus (Hpc), dorsal Raphe nucleus (DRN) and cerebellum (cb). The tubulin acetylation levels in drug-treated mice are expressed as percent change of the vehicle-treated mice of the corresponding genotype. The horizontal lines depict the average tubulin acetylation±SEM in the vehicle treated mice. The representative Western blot images show the changes induced by each drug treatment in the hippocampus (left column) and dorsal raphe (right column) of WT and HDAC6 KO mice.

In data set [5] the test system is histone H3 lysine 9 acetylation. The experiment in a line: Histone H3K9 acetylation in vivo (Western blot, ChIP). Details: species or system mouse. As to conditions: in vivo treatment.
Data set [6] deals with RN46A-B14 serotonergic cell line. As to the kind of experiment: α-tubulin K40 acetylation in RN46A-B14 cells (Western blot). The following applies: 4 hours; TSA 0.6 μM, others 2.5 μM. It is filed as cell-based, rat. As to the method:
In FIG. 3, it was observed that subchronic treatment, consisting of 5 treatments at 48, 28, 24, 4 and ½ hours before sacrifice, led to greater increase in tubulin acetylation than did chronic treatment of 1 injection/day for 21 days. For cell culture, RN46B cells were treated for with 0.25, 2.5 or 25 μM drug in DMSO for 1, 4 or 24 hours as indicated. Tukey post-hoc analysis: * P=0.01 to 0.05, ** P=0.001-0.01, ***P<0.001 when compared with vehicle treatment.
Results are shown as percent change normalized to the vehicle treatment condition. The horizontal hard line depicts average and the dotted lines depict SEM of the vehicle treated wells. Representative Western blot images are presented. […] Representative Western blot images are presented. […] The drugs (5 mg/kg) were administered subchronically (at 24 h, 4 h and 30 min prior to sacrifice) to HDAC6 KO and WT littermates. The changes in tubulin acetylation were measured in tissue lysates from cortex (ctx), hippocampus (Hpc), dorsal Raphe nucleus (DRN) and cerebellum (cb). The tubulin acetylation levels in drug-treated mice are expressed as percent change of the vehicle-treated mice of the corresponding genotype. The horizontal lines depict the average tubulin acetylation±SEM in the vehicle treated mice. The representative Western blot images show the changes induced by each drug treatment in the hippocampus (left column) and dorsal raphe (right column) of WT and HDAC6 KO mice.
In contrast to the class I isoforms HDAC2 and 3, which are expressed highly and ubiquitously in the mouse brain, HDAC6 mRNA expression appears to be restricted to a small number of brain areas, with highest signal observed in DRN (FIG. 13f). […] No changes in total α-tubulin expression were detected (FIG. 14a).
On the technique in general: Immunoblotting shows a protein as a band on a membrane.

Sequence of HDAC2 (Q92769 whole entry): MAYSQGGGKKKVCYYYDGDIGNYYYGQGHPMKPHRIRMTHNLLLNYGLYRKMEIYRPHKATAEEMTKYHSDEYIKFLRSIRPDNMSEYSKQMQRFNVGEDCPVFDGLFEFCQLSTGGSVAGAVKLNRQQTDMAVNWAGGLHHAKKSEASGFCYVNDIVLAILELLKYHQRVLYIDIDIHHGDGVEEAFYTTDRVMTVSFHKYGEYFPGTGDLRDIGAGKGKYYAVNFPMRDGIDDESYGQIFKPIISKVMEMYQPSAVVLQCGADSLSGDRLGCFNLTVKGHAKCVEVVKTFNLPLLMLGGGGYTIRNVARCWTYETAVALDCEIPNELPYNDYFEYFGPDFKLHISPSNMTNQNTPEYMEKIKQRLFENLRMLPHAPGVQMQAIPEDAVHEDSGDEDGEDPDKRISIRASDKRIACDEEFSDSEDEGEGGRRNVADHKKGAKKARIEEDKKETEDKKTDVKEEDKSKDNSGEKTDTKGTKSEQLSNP

For `O=C(NO)c1cnc(NC2(c3cccc(F)c3)CCCCC2)nc1` [Compound 101, 2-((1-(3-fluorophenyl)cyclohexyl)amino)-N-hydroxypyrimidine-5-carboxamide], the “percentage of resilient mice” value in data set [1] is reported as 58%. Moreover, the body weight gain entry in data set [2] was “no significant effect”. Moreover, the entries for the “HDAC2 fold versus HDAC6 (in brackets)” value in data set [3] and in data set [3] (Table 3) were “(343.2x)” and 342 x, respectively. Besides, the “α-tubulin acetylation over baseline levels” value in data set [4] (HDAC6 KO mice, identical treatment regimens) is recorded as “did not produce increases”. The “α-tubulin acetylation in cortex, hippocampus, DRN, cerebellum” value in data set [4] (wild-type mice, 24 h, 4 h, 30 m before sacrifice, compound 73 5 mg/kg, compound 101 50 mg/kg) was “significant increases”. Moreover, the “acetylation of histone 3 at lysine 9 in Western blot” value in data set [5] is recorded as “did not significantly alter”. Further, the “acetylated (lysine 40) fraction of α-tubulin” value in data set [6] is listed as “increases”.
